Here are results for 47 molecules from the supplement of paper PMC12317010.

A short description of this series: collision cross section in nitrogen (drift tube, single-field); higher = larger gas-phase ion size.
Setting [1] is: ion type: [M-H], ion source: ESI, ion mode: Negative.
Where [2] appears, read: ion type: [M+H], ion source: APCI, ion mode: Positive.
Where [3] appears, read: ion type: [M+H], ion source: ESI, ion mode: Positive.
Setting [4] is: ion type: [M+Na], ion source: ESI, ion mode: Positive.
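Also: chemical standards at 10 µM analysed by drift tube IMS-QTOF MS in about 3.95 torr nitrogen, mean of duplicate injections differing ≤1%, mass error below 10 ppm.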

As for `O=[N+]([O-])c1ccc(O)cc1` [4-Nitrophenol], the “collision cross section in nitrogen” value under setting [1] is given as 120.6 Å².
Still for that read-out and setting: the figure for `O=[N+]([O-])c1cc[n+]([O-])cc1` [4-Nitropyridine-1-oxide] is 119.2 Å².
With `O=Nc1ccc(Nc2ccccc2)cc1` [4-Nitrosodiphenylamine], the “collision cross section in nitrogen” value is, setting by setting: under setting [2], 144.3 Å²; under setting [3], 144.2 Å²; under setting [1], 144.7 Å².
Consider `CCCCCCCCCc1ccc(O)cc1` [4-Nonylphenol], for which the “collision cross section in nitrogen” value under setting [1] came out at 161.4 Å².
On the same count and under the same terms, as for `CCCCCCCCc1ccc(O)cc1` [4-Octylphenol], the figure is 159.9 Å².
Consider `CCCCCc1ccc(N)cc1` [4-Pentylaniline], for which the “collision cross section in nitrogen” value under setting [3] was 156.5 Å².
For `CCCCCc1ccc(O)cc1` [4-Pentylphenol], the “collision cross section in nitrogen” value under setting [1] was 146.9 Å².
Same read-out and setting: as for `Oc1ccc(Oc2ccccc2)cc1` [4-Phenoxyphenol], the figure is 145.7 Å².
Same read-out and setting: the figure for `Oc1ccc(-c2ccccc2)cc1` [4-Phenylphenol] is 139.3 Å².
For the molecule `Cc1ccc(-c2ccccc2)cc1` [4-Phenyltoluene], under setting [4], the “collision cross section in nitrogen” value is reported as 135.4 Å².
Turning to `CCCc1ccc(O)cc1` [4-Propylphenol], the “collision cross section in nitrogen” value under setting [1] is on record as 134.5 Å².
For the molecule `Oc1ccncc1` [4-Pyridinol], the “collision cross section in nitrogen” value by setting is: under setting [2], 116 Å²; under setting [3], 116.2 Å²; under setting [1], 113.9 Å².
As to `O=C(O)c1ccc(S(=O)(=O)O)cc1C(=O)O` [4-Sulfophthalic acid], under setting [1], the “collision cross section in nitrogen” value worked out at 145.3 Å².
Still for that read-out and setting: the figure for `Cc1ccc(S(N)(=O)=O)cc1` [4-Toluenesulfonamide] is 136.3 Å².
`CC(=O)CCc1ccc(OC(C)=O)cc1` [4-[4-(Acetyloxy)phenyl]-2-butanone]: the “collision cross section in nitrogen” value under setting [4] amounted to 146.4 Å².
With `CCN(CC)c1ccc(C=NN(c2ccccc2)c2ccccc2)cc1` [4-[(Diphenylhydrazinylidene)methyl]-N,N-diethylaniline], the “collision cross section in nitrogen” value is reported as 189.8 Å² under setting [2] and 200.7 Å² under setting [3].
The matching figures for `CC(C)(C)c1ccc(N)cc1` [4-tert-Butylaniline]: 147.3 Å² and 147.6 Å².
With `CC(C)(C)c1ccc(O)c(O)c1` [4-tert-Butylcatechol], the “collision cross section in nitrogen” value under setting [1] was found to be 139.3 Å².
As for `CC(C)(C)c1ccc(OC(=O)c2ccccc2O)cc1` [4-tert-Butylphenyl salicylate], under setting [1], the “collision cross section in nitrogen” value was 168.4 Å².
Same read-out and setting: the figure for `N#Cc1ccc(CC(=O)c2cccc(C(F)(F)F)c2)cc1` [4-{2-Oxo-2-[3-(trifluoromethyl)phenyl]ethyl}benzonitrile] is 163 Å²; for `O=C1NC(=O)C(c2ccccc2)(c2ccccc2)N1` [5,5-Diphenylhydantoin] it is 160 Å².
Regarding `c1cnc2c(n1)CCCC2` [5,6,7,8-Tetrahydroquinoxaline], the “collision cross section in nitrogen” value under setting [2] worked out at 126.6 Å².
For the molecule `O=c1cc(-c2ccccc2)oc2ccc3ccccc3c12` [5,6-Benzoflavone], the “collision cross section in nitrogen” value by setting is: under setting [2], 160.8 Å²; under setting [3], 160.2 Å²; under setting [4], 181.8 Å².
In the case of `COc1cc(OC)c2ccc(=O)oc2c1` [5,7-Dimethoxy-2H-chromen-2-one], the “collision cross section in nitrogen” value runs as follows: under setting [2], 139.1 Å²; under setting [3], 139.6 Å².
Regarding `O=[N+]([O-])c1ccc(-c2nnc(O)o2)o1` [5-(5-Nitro-2-furyl)-1,3,4-oxadiazole-2-ol], the “collision cross section in nitrogen” value under setting [1] turned out to be 135.2 Å².
On to `Cc1ccc(N)cc1S(=O)(=O)O` [5-Amino-2-methylbenzenesulfonic acid], for which the “collision cross section in nitrogen” value under setting [1] was 137.7 Å².
On to `Cc1ccc(N)cc1O` [5-Amino-2-methylphenol], for which the “collision cross section in nitrogen” value under setting [3] is recorded as 123.5 Å².
Consider `Nc1ccc(O)c(C(=O)O)c1` [5-Aminosalicylic acid], for which, under setting [1], the “collision cross section in nitrogen” value stood at 127.8 Å².
Same read-out and setting: the figure for `S=c1[nH]c2cc(Cl)ccc2s1` [5-Chloro-1,3-benzothiazole-2(3H)-thione] is 133.3 Å²; for `O=C(Nc1ccc([N+](=O)[O-])cc1Cl)c1cc(Cl)ccc1O` [5-Chloro-N-(2-chloro-4-nitrophenyl)-2-hydroxybenzamide] it is 164.6 Å².
On to `Clc1ccc2[nH]nnc2c1` [5-Chlorobenzotriazole], for which the “collision cross section in nitrogen” value reads like this: under setting [3], 128.5 Å²; under setting [1], 123.2 Å².
With `O=C(Nc1ccccc1)c1cc(Cl)ccc1O` [5-Chlorosalicylanilide], the “collision cross section in nitrogen” value under setting [1] is 151.9 Å².
`CCC1(C)NC(=O)NC1=O` (configuration not stated) [5-Ethyl-5-methylhydantoin]: the “collision cross section in nitrogen” value under setting [1] was determined as 129.7 Å².
Regarding `O=c1[nH]cc(F)c(=O)[nH]1` [5-Fluorouracil], under setting [1], the “collision cross section in nitrogen” value is recorded as 115.4 Å².
As to `COc1c2ccoc2cc2oc(=O)ccc12` [5-Methoxypsoralen], the “collision cross section in nitrogen” value came to 139.3 Å² under setting [2] and 140.3 Å² under setting [3].
On to `Cc1ccc2[nH]nnc2c1` [5-Methyl-1H-benzotriazole], for which the “collision cross section in nitrogen” value by setting is: under setting [2], 125.1 Å²; under setting [3], 124.8 Å²; under setting [1], 125.2 Å².
Turning to `CC(C)CCCC(=O)O` [5-Methylhexanoic acid], under setting [1], the “collision cross section in nitrogen” value amounted to 136.9 Å².
`Cc1cccc2nccnc12` [5-Methylquinoxaline]: under setting [2], the “collision cross section in nitrogen” value is reported as 126.5 Å².
As to `O=[N+]([O-])c1ccc2[nH]c(S)nc2c1` [5-Nitro-2-mercaptobenzimidazole], the “collision cross section in nitrogen” value under setting [1] amounted to 133.6 Å².
The same measure, in the same setting: the figure for `c1ccc(-c2nnn[nH]2)cc1` [5-Phenyl-1H-tetrazole] is 127.7 Å².
In the case of `CC1CCc2nccnc21` (configuration not stated) [6,7-Dihydro-5-methyl-5H-cyclopentapyrazine], the “collision cross section in nitrogen” value under setting [2] is 127.6 Å².
In the case of `CC(C)c1ccc2ncccc2c1` [6-(1-Methylethyl)quinoline], the “collision cross section in nitrogen” value worked out at 138 Å² under setting [2] and 138.5 Å² under setting [3].
Regarding `Nc1ccc2cc(S(=O)(=O)O)ccc2c1` [6-Aminonaphthalene-2-sulfonic acid], the “collision cross section in nitrogen” value under setting [1] was found to be 150.3 Å².
Same read-out and setting: as for `O=c1[nH]c2ccc(Cl)cc2o1` [6-Chloro-2,3-dihydrobenzoxazol-2-one], the figure is 125.6 Å².
Still for that read-out and setting: as for `Cc1cc(O)c(C(C)C)cc1Cl` [6-Chlorothymol], the figure is 140.5 Å².
In the case of `Oc1ccc2cc(SSc3ccc4cc(O)ccc4c3)ccc2c1` [6-Hydroxy-2-naphthyl disulfide], the “collision cross section in nitrogen” value under setting [1] is on record as 185.8 Å².
Take `Oc1cccc(O)n1` [6-Hydroxy-2-oxopyridinium chloride]: the “collision cross section in nitrogen” value runs as follows: under setting [3], 120.2 Å²; under setting [1], 115 Å².
